Measured values reported in patent US20090312288A1 (TAKEDA PHARMACEUTICAL COMPANY LIMITED, priority 2008, published 2009).

Target: Aurora B/INCENP (Homo sapiens, UniProt Q96GD4)
Test: Determination of inhibition of AIK: Aurora B/INCENP direct fluorescence polarization (IMAP) assay
Assay type: biochemical
Settings: 10 uM ATP, 0.8 nM Aurora B/INCENP; values given as bins; read-out: IC50 of Exemplified Compounds Against AIK B
Method: Detection of the reaction product is performed by addition of Progressive IMAP binding reagent (Molecular Devices). Reaction product may be determined quantitatively by FP using an Analyst HT plate reader (Molecular Devices) with an excitation wavelength at 485 nm and emission at 530 nm and using a Fluorescein 505 dichroic mirror.
The assay reaction may be initiated as follows: 2 ul of (3×) 300 nM Fl-Peptide/30 uM ATP was added to each well of the plate, followed by the addition of 2 ul of (3×) inhibitor (2 fold serial dilutions for 11 data points for each inhibitor) containing 15% DMSO. Two microliters of (3×) 2.4 nM AuroraB/INCENP solution may be added to initiate the reaction (final enzyme concentration was 0.8 nM for Aurora B/INCENP). The reaction mixture may then be incubated at room temperature for 45 min, and quenched and developed by addition of 20 ul of 1 to 400 diluted Progressive IMAP binding reagent in 1× proprietary Progressive IMAP binding buffer A. Fluorescence polarization readings of the resulting reaction mixtures may be measured after a 60-minute incubation at room temperature.
IC50 values may be calculated by non-linear curve fitting of the compound concentrations and fluorescent polarization values to the standard IC50 equation.

Aurora B/INCENP, sequence (Q96GD4 whole entry): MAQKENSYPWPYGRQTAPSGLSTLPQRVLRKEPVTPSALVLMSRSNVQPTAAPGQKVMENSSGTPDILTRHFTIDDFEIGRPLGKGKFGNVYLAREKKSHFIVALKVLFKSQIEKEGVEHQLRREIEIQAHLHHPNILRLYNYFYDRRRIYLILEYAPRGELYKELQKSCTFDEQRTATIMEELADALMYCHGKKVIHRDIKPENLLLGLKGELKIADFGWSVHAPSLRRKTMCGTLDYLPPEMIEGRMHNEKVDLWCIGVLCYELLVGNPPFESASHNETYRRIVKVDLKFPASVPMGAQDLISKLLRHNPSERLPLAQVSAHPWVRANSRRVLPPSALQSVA
Aurora B/INCENP, sequence (Q9NQS7 whole entry partner): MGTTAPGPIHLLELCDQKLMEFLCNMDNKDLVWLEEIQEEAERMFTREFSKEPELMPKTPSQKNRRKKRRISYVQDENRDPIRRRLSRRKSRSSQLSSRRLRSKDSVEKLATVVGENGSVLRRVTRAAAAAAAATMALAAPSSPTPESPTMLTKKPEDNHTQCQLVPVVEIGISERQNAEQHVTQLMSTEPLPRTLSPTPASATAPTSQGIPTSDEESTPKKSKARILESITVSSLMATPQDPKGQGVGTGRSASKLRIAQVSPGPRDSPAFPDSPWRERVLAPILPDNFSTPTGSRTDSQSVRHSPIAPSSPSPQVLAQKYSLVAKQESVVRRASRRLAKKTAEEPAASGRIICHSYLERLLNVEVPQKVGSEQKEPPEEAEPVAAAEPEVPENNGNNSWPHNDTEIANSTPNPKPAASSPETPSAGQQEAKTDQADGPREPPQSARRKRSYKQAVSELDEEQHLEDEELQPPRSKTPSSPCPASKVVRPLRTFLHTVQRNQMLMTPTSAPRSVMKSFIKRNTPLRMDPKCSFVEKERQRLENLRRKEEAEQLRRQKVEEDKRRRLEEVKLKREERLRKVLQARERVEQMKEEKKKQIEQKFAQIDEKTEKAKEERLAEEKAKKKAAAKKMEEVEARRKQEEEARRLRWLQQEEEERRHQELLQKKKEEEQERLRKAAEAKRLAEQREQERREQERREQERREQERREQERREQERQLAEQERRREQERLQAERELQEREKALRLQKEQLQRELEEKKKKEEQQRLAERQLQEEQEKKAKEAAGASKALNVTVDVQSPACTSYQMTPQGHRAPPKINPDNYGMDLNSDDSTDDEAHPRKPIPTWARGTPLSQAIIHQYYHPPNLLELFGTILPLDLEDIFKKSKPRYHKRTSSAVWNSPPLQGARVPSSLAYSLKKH

Row | IC50 | SMILES
1 | > 13 nM | c1ccc(-c2cccc3[nH]c4ncccc4c23)cc1 [Compound 5, 5-phenyl-9H-pyrido[2,3-b]indole]
2 | > 13 nM | CS(=O)(=O)c1cccc(-c2cccc3[nH]c4ncccc4c23)c1 [Compound 8, 5-(3-(methylsulfonyl)phenyl)-9H-pyrido[2,3-b]indole]
3 | > 13 nM | CCS(=O)(=O)c1cccc(-c2cccc3[nH]c4ncccc4c23)c1 [Compound 9, 5-(3-(ethylsulfonyl)phenyl)-9H-pyrido[2,3-b]indole]
4 | > 13 nM | Cc1cccc(-c2cccc3[nH]c4ncccc4c23)c1 [Compound 11, 5-m-tolyl-9H-pyrido[2,3-b]indole]
5 | > 13 nM | O=S(=O)(NC1CC1)c1cccc(-c2cccc3[nH]c4ncccc4c23)c1 [Compound 12, N-cyclopropyl-3-(9H-pyrido[2,3-b]indol-5-yl)benzenesulfonamide]
6 | < 4 nM | CNS(=O)(=O)c1cc(-c2ccc(C)c3[nH]c4ncc(C)cc4c23)ccc1OC [Compound 14, 5-(3,8-dimethyl-9H-pyrido[2,3-b]indol-5-yl)-2-methoxy-N-methylbenzenesulfonamide]
7 | < 4 nM | CNS(=O)(=O)c1cccc(-c2ccc(C)c3[nH]c4ncc(C)cc4c23)c1 [Compound 15, 3-(3,8-dimethyl-9H-pyrido[2,3-b]indol-5-yl)-N-methylbenzenesulfonamide]
8 | 5.6 to 8.5 nM | Cc1cnc2[nH]c3c(C)ccc(-c4cccc(S(=O)(=O)N(C)C)c4)c3c2c1 [Compound 16, 3-(3,8-dimethyl-9H-pyrido[2,3-b]indol-5-yl)-N,N-dimethylbenzenesulfonamide]
9 | 5.6 to 8.5 nM | CCS(=O)(=O)c1cccc(-c2ccc(C)c3[nH]c4ncc(C)cc4c23)c1 [Compound 18, 5-(3-(ethylsulfonyl)phenyl)-3,8-dimethyl-9H-pyrido[2,3-b]indole]
10 | 4 to 5.5 nM | Cc1cnc2[nH]c3c(C)ccc(-c4cccc(C(=O)NC5CC5)c4)c3c2c1 [Compound 20, N-cyclopropyl-3-(3,8-dimethyl-9H-pyrido[2,3-b]indol-5-yl)benzamide]
11 | > 13 nM | CC(=O)Nc1ccc(Sc2cccc3[nH]c4ncccc4c23)cc1 [Compound 21, N-(4-(9H-pyrido[2,3-b]indol-5-ylthio)phenyl)acetamide]
12 | > 13 nM | c1ccc(Sc2cccc3[nH]c4ncccc4c23)cc1 [Compound 23, 5-(phenylthio)-9H-pyrido[2,3-b]indole]
13 | > 13 nM | Cc1cnc2[nH]c3c(C)ccc(SCc4ccccc4)c3c2c1 [Compound 25, 5-(benzylthio)-3,8-dimethyl-9H-pyrido[2,3-b]indole]
14 | 5.6 to 8.5 nM | CCS(=O)(=O)c1cccc(-c2c[nH]c(=O)c3[nH]c4ncc(C)cc4c23)c1 [Compound 32, 5-(3-Ethanesulfonyl-phenyl)-3-methyl-7,9-dihydro-dipyrido[2,3-b;4′,3′-d]pyrrol-8-one]
15 | 4 to 5.5 nM | CCS(=O)(=O)c1cccc(-c2cnc(Cl)c3[nH]c4ncc(C)cc4c23)c1 [Compound 33, 8-Chloro-5-(3-ethanesulfonyl-phenyl)-3-methyl-9H-dipyrido[2,3-b;4′,3′-d]pyrrole]
16 | 5.6 to 8.5 nM | CCS(=O)(=O)c1cccc(-c2cnc(NCCCN(C)C)c3[nH]c4ncc(C)cc4c23)c1 [Compound 41, N′-[5-(3-Ethanesulfonyl-phenyl)-3-methyl-9H-dipyrido[2,3-b;4′,3′-d]pyrrol-8-yl]-N,N-dimethyl-propane-1,3-diamine]

Row | IC50 | SMILES
17 | 8.6 to 13 nM | CCS(=O)(=O)c1cccc(-c2cnc(NCCN(C)C)c3[nH]c4ncc(C)cc4c23)c1 [Compound 42, N′-[5-(3-Ethanesulfonyl-phenyl)-3-methyl-9H-dipyrido[2,3-b;4′,3′-d]pyrrol-8-yl]-N,N-dimethyl-ethane-1,2-diamine]
18 | 5.6 to 8.5 nM | CCS(=O)(=O)c1cccc(-c2cnc(NCCCN3CCOCC3)c3[nH]c4ncc(C)cc4c23)c1 [Compound 43, [5-(3-Ethanesulfonyl-phenyl)-3-methyl-9H-dipyrido[2,3-b;4′,3′-d]pyrrol-8-yl]-(3-morpholin-4-yl-propyl)-amine]
19 | 8.6 to 13 nM | CCS(=O)(=O)c1cccc(-c2cnc(NC3CCN(C)CC3)c3[nH]c4ncc(C)cc4c23)c1 [Compound 44, [5-(3-Ethanesulfonyl-phenyl)-3-methyl-9H-dipyrido[2,3-b;4′,3′-d]pyrrol-8-yl]-(1-methyl-piperidin-4-yl)-amine]
20 | 8.6 to 13 nM | CCS(=O)(=O)c1cccc(-c2cnc(NCC3CCN(C)CC3)c3[nH]c4ncc(C)cc4c23)c1 [Compound 46, [5-(3-Ethanesulfonyl-phenyl)-3-methyl-9H-dipyrido[2,3-b;4′,3′-d]pyrrol-8-yl]-(1-methyl-piperidin-4-ylmethyl)-amine]
21 | 5.6 to 8.5 nM | CCS(=O)(=O)c1cccc(-c2cnc(C)c3[nH]c4ncc(C)cc4c23)c1 [Compound 47, 5-(3-Ethanesulfonyl-phenyl)-3,8-dimethyl-9H-dipyrido[2,3-b;4′,3′-d]pyrrole]
22 | 8.6 to 13 nM | CCS(=O)(=O)c1cccc(-c2cnc(C#N)c3[nH]c4ncc(C)cc4c23)c1 [Compound 49, 5-(3-Ethanesulfonyl-phenyl)-3-methyl-9H-dipyrido[2,3-b;4′,3′-d]pyrrole-8-carbonitrile]
23 | 5.6 to 8.5 nM | CCS(=O)(=O)c1cccc(-c2cnc(C(N)=O)c3[nH]c4ncc(C)cc4c23)c1 [Compound 50, 5-(3-Ethanesulfonyl-phenyl)-3-methyl-9H-dipyrido[2,3-b;4′,3′-d]pyrrole-8-carboxylic acid amide]
24 | 5.6 to 8.5 nM | CCOc1ncc(-c2cccc(S(=O)(=O)CC)c2)c2c1[nH]c1ncc(C)cc12 [Compound 51, 5-(3-Ethanesulfonyl-phenyl)-8-ethoxy-3-methyl-9H-dipyrido[2,3-b;4′,3′-d]pyrrole]
25 | 8.6 to 13 nM | CCS(=O)(=O)c1cccc(-c2cnc(OCCCN(C)C)c3[nH]c4ncc(C)cc4c23)c1 [Compound 52, {3-[5-(3-Ethanesulfonyl-phenyl)-3-methyl-9H-dipyrido[2,3-b;4′,3′-d]pyrrol-8-yloxy]-propyl}-dimethyl-amine]
26 | 4 to 5.5 nM | CCS(=O)(=O)c1cccc(-c2cnc(OCCO)c3[nH]c4ncc(C)cc4c23)c1 [Compound 53, 2-[5-(3-Ethanesulfonyl-phenyl)-3-methyl-9H-dipyrido[2,3-b;4′,3′-d]pyrrol-8-yloxy]-ethanol]
27 | 8.6 to 13 nM | CCS(=O)(=O)c1cccc(-c2cnc(OCC3CCN(C)CC3)c3[nH]c4ncc(C)cc4c23)c1 [Compound 54, 5-(3-Ethanesulfonyl-phenyl)-3-methyl-8-(1-methyl-piperidin-4-ylmethoxy)-9H-dipyrido[2,3-b;4′,3′-d]pyrrole]
28 | < 4 nM | CCS(=O)(=O)c1cccc(-c2cnc(OCCCO)c3[nH]c4ncc(C)cc4c23)c1 [Compound 55, 3-[5-(3-Ethanesulfonyl-phenyl)-3-methyl-9H-dipyrido[2,3-b;4′,3′-d]pyrrol-8-yloxy]-propan-1-ol]
29 | < 4 nM | CCS(=O)(=O)c1cccc(-c2cnc(OC[C@H](O)CO)c3[nH]c4ncc(C)cc4c23)c1 [Compound 56]
30 | 4 to 5.5 nM | CCS(=O)(=O)c1cccc(-c2cnc(OC[C@@H](O)CO)c3[nH]c4ncc(C)cc4c23)c1 [Compound 57]
31 | 8.6 to 13 nM | CCS(=O)(=O)c1cccc(-c2cnc(OCC(C)(C)O)c3[nH]c4ncc(C)cc4c23)c1 [Compound 58, 1-[5-(3-Ethanesulfonyl-phenyl)-3-methyl-9H-dipyrido[2,3-b;4′,3′-d]pyrrol-8-yloxy]-2-methyl-propan-2-ol]
